Results as given in US20240360194A1, “New Peptides as Potent and Selective GIP Receptor Agonists” (Sanofi, priority 2021, published 2024).
Numbered stars: 1 amine (or outer) side, 2 acyl side, 3 side chain; on linkers, the order of the positions; unused ones are H or OH. Square brackets hold non-standard residues; d marks the D form. Side chains are listed from the residue outwards. Peptide text beside a SMILES is read from it. * marks the point of attachment. C18 diacid = O=C(O)CCCCCCCCCCCCCCCCC(=O)*; γGlu = O=C(O)[C@H](CCC(=O)[*:2])N[*:1]; Abu = CC[C@H](N)C(=O)O; AEEA = NCCOCCOCC(=O)O; Aib = CC(C)(N)C(=O)O

Tests used:
[1] = target: T1, human GIP receptor (Homo sapiens, UniProt P48546); assay: In vitro cellular cAMP assay for GIP receptor efficacy (human adipocytes); assay type: cell-based; conditions: for EC50: read-out: hGIPR EC50; for Emax: read-out: hGIPR Emax
T1 construct: human adipocytes endogenously expressing the human GIP receptor; host or cells: human preadipocytes (Lonza) differentiated to adipocytes
T1 sequence (P48546 22-466): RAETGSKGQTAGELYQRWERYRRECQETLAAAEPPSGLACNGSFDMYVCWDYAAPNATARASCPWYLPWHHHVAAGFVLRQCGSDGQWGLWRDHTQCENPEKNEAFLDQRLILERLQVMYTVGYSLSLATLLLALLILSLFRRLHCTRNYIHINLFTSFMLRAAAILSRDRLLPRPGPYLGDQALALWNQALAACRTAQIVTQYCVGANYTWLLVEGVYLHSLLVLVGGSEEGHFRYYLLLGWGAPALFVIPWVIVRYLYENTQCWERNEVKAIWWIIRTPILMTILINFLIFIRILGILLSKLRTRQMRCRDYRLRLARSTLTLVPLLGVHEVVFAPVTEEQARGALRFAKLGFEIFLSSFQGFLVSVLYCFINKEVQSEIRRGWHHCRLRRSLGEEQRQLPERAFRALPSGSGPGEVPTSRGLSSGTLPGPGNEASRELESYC
Protocol: For this, one vial of human preadipocytes (˜10^6 cells; Lonza) was thawed in a T-75 cell culture dish. The cells were cultivated at 37° C., 5% CO2, 95% humidity in Preadipocyte Growth Medium with Supplement Mix from Promo Cell.
After 3 days, the cells were washed with PBS and 1.5 ml Trypsin, incubated for 4 min, then resuspended in medium, centrifugated for 10 min @ 300 rcf RT, resuspended again and distributed to four T-75 cell culture dishes. Again, the cells were cultivated at 37° C., 5% CO2, 95% humidity.
After 5 days, the cells were washed with PBS and 1.5 ml Trypsin, incubated for 4 min, then resuspended in medium, centrifugated for 10 min @ 300 rcf RT, resuspended again and sawn in T-75 dishes (2.5×10^6 cells per dish) in 15 ml Differentiation medium each.
The differentiation medium had the following composition: DMEM (Gibco), Ham's F10 (Gibco), 15 mM HEPES (Gibco), 3% FCS (PAA), 33 μM biotin (Sigma-Aldrich), 17 μM Pantothenate (Sigma-Aldrich), 0.1 μM human insulin (Sigma-Aldrich), 1 μM dexamethason (Sigma-Aldrich), 0.1 μM PPARgamma agonist (#R2408, Sigma-Aldrich), 0.6×Anti-Anti (#15240, ThermoFisher), 200 μM IBMX (AppliChem), and 0.01 μM L-thyroxine (Sigma-Aldrich).
After 6 days of differentiation, 5000 cells per well were dispensed on a 96-well plate (#CLS3694 from Corning®, Sigma-Aldrich). For measurement of cAMP generation, 25 μL of test compound was added to each well of the 96-well plate, followed by incubation for 30 min at room temperature.
The cAMP generated following test compound stimulation was determined using a kit from Cisbio Corp. based on HTRF (Homogenous Time Resolved Fluorescence). The cAMP assay was performed according to manufacturer's instructions (Cisbio).
The cAMP content of cells was determined using a kit from Cisbio Corp. based on HTRF (Homogenous Time Resolved Fluorescence).
After addition of HTRF reagents diluted in lysis buffer (kit components), the plates were incubated for 1 h, followed by measurement of the fluorescence ratio at 665/620 nm.

[2] = Solubility assessment (UHPLC-UV of supernatant, target 10 mg/ml); assay type: physicochemical; conditions: for Soluble amount: 24 h, pH 7.4; for solubility at 24 h: pH 7.4, Soluble amount
Protocol: Prior to the solubility measurement of a peptide batch, its purity was determined through UHPLC/MS.
Therefore, solutions from solid samples were prepared in a buffer system with a concentration of 10 mg/ml compound based on the previously determined % purity: • Solubility buffer system A) 100 mM phosphate buffer pH 7.4 • Solubility buffer system B) 8 mM phosphate buffer pH 7.4, 14 mg/ml propylene glycol, 5.5 mg/ml phenol • Solubility buffer system C) 100 mM phosphate buffer pH 7.4, 2.7 mg/ml m-cresol
UHPLC-UV was performed after 1 h of gentle agitation and storage at 5° C. overnight (24 h) from the supernatant, which was obtained after 15 min of centrifugation at 2500 RCF (relative centrifugal acceleration).
The different UV extinction coefficients of sample and reference peptide were calculated based on the different amino acid sequences and considered in the concentration calculation.
The analytical method used was Analytical UHPLC Method A.
Peptide samples were prepared in solubility buffer system A or C and solubility was assessed as described in Methods.

[3] = target: T2, human GIP receptor (hGIPR) (Homo sapiens, UniProt P48546); assay: Binding assay, displacement of [125I]GIP from HEK-293 membranes over-expressing GIPR (SPA); conditions: [125I]GIP displacement
T2 sequence (P48546 22-466): T1 sequence (P48546 22-466)
Protocol: (1) Preparation of Membranes from HEK-293 Cells Over-Expressing GIPR or GLP-1R
HEK-293 cells recombinantly over-expressing GIPR or GLP-1R were grown to 50% confluency, washed with warm 1×PBS (Gibco) and detached in HEPES/EDTA-buffer (100 mM HEPES pH 7.5, 5 mM EDTA). Cells were harvested by centrifugation at 4° C. and 3000×g and the pellets were stored at −80° C. until further processing.
After thawing on ice, pellets were resuspended in HEPES/EDTA-buffer and homogenized on ice for 1 min using Ultra-Turray T25. After subsequent sonification the cell debris was removed by centrifugation at 1000×g and 4° C. Supernatants were then ultra-centrifuged at 100000×g and 4° C. under vacuum for 30 min. Pellets were resuspended in HEPES/EDTA/NaCl-buffer (20 mM HEPES, 1 mM EDTA, 150 mM NaCl; add 1 Complete Mini Protease inhibitor cocktail to 10 ml buffer) and protein content was determined via BCA-Protein assay.
(2) Measurement of Binding Activity of Test Compounds to Human GIPR or GLP-1R

[4] = target: human GLP-1 receptor (hGLP-1R) (Homo sapiens, UniProt P43220); assay: In vitro cellular cAMP assay for GLP-1 receptor efficacy (HEK-293 cell line over-expressing receptor); assay type: cell-based; conditions: HEK-293, 0.1% BSA
Chain of human GLP-1 receptor (hGLP-1R) (P43220 24-463): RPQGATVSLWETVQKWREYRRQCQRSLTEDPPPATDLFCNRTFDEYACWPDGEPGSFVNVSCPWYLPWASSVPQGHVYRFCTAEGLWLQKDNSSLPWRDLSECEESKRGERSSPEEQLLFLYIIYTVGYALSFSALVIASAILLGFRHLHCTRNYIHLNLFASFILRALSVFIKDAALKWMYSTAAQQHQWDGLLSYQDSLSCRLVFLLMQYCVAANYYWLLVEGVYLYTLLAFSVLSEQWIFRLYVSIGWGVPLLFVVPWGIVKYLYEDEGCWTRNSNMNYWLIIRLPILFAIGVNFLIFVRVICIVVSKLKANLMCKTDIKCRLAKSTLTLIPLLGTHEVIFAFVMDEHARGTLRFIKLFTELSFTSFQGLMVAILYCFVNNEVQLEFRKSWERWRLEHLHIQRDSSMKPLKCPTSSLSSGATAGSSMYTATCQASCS

Row | Structure (SMILES) | EC50 [1] [nM] | Emax [1] [%] | Soluble amount [2] [mg/mL] | solubility at 24 h [2] [µg/mL] | IC50 [3] [nM] | EC50 [4] [nM]
1 | CC[C@H](NC(=O)[C@@H](NC(=O)CNC(=O)[C@H](CCC(=O)O)NC(=O)C(C)(C)NC(=O)[C@@H](N)Cc1ccc(O)cc1)[C@@H](C)O)C(=O)N[C@H](C(=O)N[C@@H](CO)C(=O)N[C@@H](CC(=O)O)C(=O)N[C@@H](CC(C)C)C(=O)N[C@@H](CO)C(=O)N[C@H](C(=O)NC(C)(C)C(=O)N[C@@H](CCCCNC(=O)COCCOCCNC(=O)COCCOCCNC(=O)CC[C@H](NC(=O)CCCCCCCCCCCCCCCCC(=O)O)C(=O)O)C(=O)N[C@@H](CC(=O)O)C(=O)N[C@@H](CCCNC(=N)N)C(=O)N[C@H](C(=O)N[C@@H](Cc1c[nH]cn1)C(=O)N[C@@H](CCC(N)=O)C(=O)N[C@@H](CCC(=O)O)C(=O)N[C@@H](CCC(=O)O)C(=O)N[C@@H](Cc1ccccc1)C(=O)N[C@H](C(=O)N[C@@H](CCC(=O)O)C(=O)N[C@@H](Cc1c[nH]c2ccccc12)C(=O)N[C@@H](CC(C)C)C(=O)N[C@@H](CC(C)C)C(=O)N[C@@H](C)C(=O)N[C@@H](CCC(N)=O)C(=O)NCC(=O)N1CCC[C@H]1C(=O)N[C@@H](CO)C(=O)N[C@@H](CO)C(=O)NCC(=O)N[C@@H](C)C(=O)N1CCC[C@H]1C(=O)N1CCC[C@H]1C(=O)N1CCC[C@H]1C(=O)N[C@@H](CO)C(N)=O)[C@@H](C)CC)[C@@H](C)CC)[C@@H](C)CC)[C@@H](C)CC [SEQ ID NO: 25, H2N-Y-Aib-E-G-T-Abu-I-S-D-L-S-I-Aib-K[{AEEA}2-gGlu-C18OH]-DRIHQEEFIEWLLAQGPSSGAPPPS-NH2] (H-Y[Aib]EGT[Abu]ISDLSI[Aib]K([AEEA-AEEA-γGlu-C18 diacid])DRIHQEEFIEWLLAQGPSSGAPPPS-NH2) | 0.2 | 112 | >9.2 | > 8800 | 0.1 | > 10
2 | CC[C@H](C)[C@H](NC(=O)[C@H](Cc1ccccc1)NC(=O)[C@H](CCC(=O)O)NC(=O)[C@H](CCC(=O)O)NC(=O)[C@H](CCC(N)=O)NC(=O)[C@H](Cc1c[nH]cn1)NC(=O)[C@@H](NC(=O)[C@H](CCCNC(=N)N)NC(=O)[C@H](CC(=O)O)NC(=O)[C@H](CCCCNC(=O)COCCOCCNC(=O)COCCOCCNC(=O)CC[C@H](NC(=O)CCCCCCCCCCCCCCCCC(=O)O)C(=O)O)NC(=O)C(C)(C)NC(=O)[C@@H](NC(=O)[C@H](CO)NC(=O)[C@H](CC(C)C)NC(=O)[C@H](CC(=O)O)NC(=O)[C@H](CO)NC(=O)[C@@H](NC(=O)[C@H](Cc1ccccc1)NC(=O)[C@@H](NC(=O)CNC(=O)[C@H](CCC(=O)O)NC(=O)C(C)(C)NC(=O)[C@@H](N)Cc1ccc(O)cc1)[C@@H](C)O)[C@@H](C)CC)[C@@H](C)CC)[C@@H](C)CC)C(=O)N[C@@H](CCC(=O)O)C(=O)N[C@@H](Cc1c[nH]c2ccccc12)C(=O)N[C@@H](CC(C)C)C(=O)N[C@@H](CC(C)C)C(=O)N[C@@H](C)C(=O)N[C@@H](CCC(N)=O)C(=O)N[C@@H](CCC(=O)O)C(=O)N1CCC[C@H]1C(=O)N[C@@H](CO)C(=O)N[C@@H](CO)C(=O)NCC(=O)N[C@@H](C)C(=O)N1CCC[C@H]1C(=O)N1CCC[C@H]1C(=O)N1CCC[C@H]1C(=O)N[C@@H](CO)C(N)=O [SEQ ID NO: 27, H2N-Y-Aib-E-G-T-F-I-S-D-L-S-I-Aib-K[{AEEA}2-gGlu-C18OH]-DRIHQEEFIEWLLAQEPSSGAPPPS-NH2] (H-Y[Aib]EGTFISDLSI[Aib]K([AEEA-AEEA-γGlu-C18 diacid])DRIHQEEFIEWLLAQEPSSGAPPPS-NH2) | 0.6 | 116 | >8.4 | > 9000 | 0.7 | > 10
3 | CC[C@H](C)[C@H](NC(=O)[C@H](Cc1ccccc1)NC(=O)[C@H](CCC(=O)O)NC(=O)[C@H](CCC(=O)O)NC(=O)[C@H](CCC(N)=O)NC(=O)[C@H](Cc1c[nH]cn1)NC(=O)[C@@H](NC(=O)[C@H](CCCNC(=N)N)NC(=O)[C@H](CC(=O)O)NC(=O)[C@H](CCCCNC(=O)COCCOCCNC(=O)COCCOCCNC(=O)CC[C@H](NC(=O)CCCCCCCCCCCCCCCCC(=O)O)C(=O)O)NC(=O)C(C)(C)NC(=O)[C@@H](NC(=O)[C@H](CO)NC(=O)[C@H](CC(C)C)NC(=O)[C@H](CC(=O)O)NC(=O)[C@H](CO)NC(=O)[C@@H](NC(=O)[C@H](Cc1ccccc1)NC(=O)[C@@H](NC(=O)CNC(=O)[C@H](CCC(=O)O)NC(=O)C(C)(C)NC(=O)[C@@H](N)Cc1ccc(O)cc1)[C@@H](C)O)[C@@H](C)CC)[C@@H](C)CC)[C@@H](C)CC)C(=O)N[C@@H](CCC(=O)O)C(=O)N[C@@H](Cc1c[nH]c2ccccc12)C(=O)N[C@@H](CC(C)C)C(=O)N[C@@H](CC(C)C)C(=O)N[C@@H](C)C(=O)N[C@@H](CCC(N)=O)C(=O)N[C@@H](CCC(=O)O)C(=O)N1CCC[C@H]1C(=O)N[C@@H](CO)C(=O)N[C@@H](CO)C(=O)NCC(=O)N[C@@H](C)C(=O)N1CCC[C@H]1C(=O)N1CCC[C@H]1C(=O)N1CCC[C@H]1C(=O)N[C@@H](CO)C(=O)O [SEQ ID NO: 28, H2N-Y-Aib-E-G-T-F-I-S-D-L-S-I-Aib-K[{AEEA}2-gGlu-C18OH]-DRIHQEEFIEWLLAQEPSSGAPPPS-OH] (H-Y[Aib]EGTFISDLSI[Aib]K([AEEA-AEEA-γGlu-C18 diacid])DRIHQEEFIEWLLAQEPSSGAPPPS-OH) | 0.5 | 103 | >9.0 | > 9400 | 0.8 | > 10
